Legend:
Assay type in all cases: binding
EcCdnD [1] = target: T1, EcCdnD (Enterobacter hormaechei, UniProt P0DSP4); assay: ITC, single site
T1 sequence (P0DSP4 1-381): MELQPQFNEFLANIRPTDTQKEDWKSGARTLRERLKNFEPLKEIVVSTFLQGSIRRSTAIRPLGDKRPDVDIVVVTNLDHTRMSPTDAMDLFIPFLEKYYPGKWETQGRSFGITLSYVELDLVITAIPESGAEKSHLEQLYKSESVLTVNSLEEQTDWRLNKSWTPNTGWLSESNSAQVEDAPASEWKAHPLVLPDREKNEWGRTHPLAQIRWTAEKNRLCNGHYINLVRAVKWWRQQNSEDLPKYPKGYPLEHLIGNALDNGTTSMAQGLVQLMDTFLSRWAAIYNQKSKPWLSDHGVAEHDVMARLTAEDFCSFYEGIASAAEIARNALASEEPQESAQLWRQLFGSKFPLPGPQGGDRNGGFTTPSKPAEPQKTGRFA

EcCdnD [2] = target: T1, EcCdnD; assay: crystal structure
EcCdnD [3] = target: T1, EcCdnD; assay: crystal structure; remark: listed apart in the source

Nc1nc2c(ncn2[C@@H]2O[C@H](COP(=O)(O)O[C@H]3[C@@H](O)[C@H](n4cnc5c(N)ncnc54)O[C@@H]3COP(=O)(O)OP(=O)(O)OP(=O)(O)O)[C@@H](O)[C@H]2O)c(=O)[nH]1 [5′-pppApG-3′]
Kd (EcCdnD [1]): 29.7 ± 2.2 µM

Nc1ncnc2c1ncn2[C@@H]1O[C@H](COP(=O)(O)OP(=O)(O)O)[C@@H](O)[C@H]1O [ADP]
crystal structure (1.87 Å), together with donor ATP (EcCdnD [2]): The diphosphate group makes seven hydrogen bonds with Arg109, Arg197 and Arg307

Nc1ncnc2c1ncn2[C@H]1CC[C@@H](CO[P@@](=O)(O)O[P@](=O)(O)OP(=O)(O)O)O1 [ddATP]
crystal structure (2.09 Å) (EcCdnD [3]): the ddATP occupied the binding site for the donor substrate

From PMC8096243 (Nucleic Acids Research, 2021)
